The results in this text go back to patent publication US11578079B2, “SUMO inhibitor compounds and uses thereof” (CITY OF HOPE, priority 2018, dated 2023).

The structures appear in SMILES notation.

The target of the test is T1, SUMO (Homo sapiens, UniProt Q9UBT2).
T1 sequence (Q9UBT2 1-640): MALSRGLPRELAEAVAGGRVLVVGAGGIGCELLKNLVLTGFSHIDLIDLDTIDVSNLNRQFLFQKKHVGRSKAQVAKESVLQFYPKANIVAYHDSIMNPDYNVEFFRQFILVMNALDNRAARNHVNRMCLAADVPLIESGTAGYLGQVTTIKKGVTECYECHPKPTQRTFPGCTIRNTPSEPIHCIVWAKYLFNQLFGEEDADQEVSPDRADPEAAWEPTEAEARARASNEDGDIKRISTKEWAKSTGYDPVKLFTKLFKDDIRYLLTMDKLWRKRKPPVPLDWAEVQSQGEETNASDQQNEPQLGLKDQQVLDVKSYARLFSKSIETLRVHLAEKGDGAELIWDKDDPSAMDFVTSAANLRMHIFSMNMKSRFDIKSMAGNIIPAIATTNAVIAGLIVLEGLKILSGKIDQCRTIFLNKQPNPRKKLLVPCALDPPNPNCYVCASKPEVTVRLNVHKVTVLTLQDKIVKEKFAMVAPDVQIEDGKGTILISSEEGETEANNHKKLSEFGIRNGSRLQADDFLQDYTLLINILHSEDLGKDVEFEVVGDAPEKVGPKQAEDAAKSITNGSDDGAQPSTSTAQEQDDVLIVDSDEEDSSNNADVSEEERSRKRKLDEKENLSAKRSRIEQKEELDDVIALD
T1 sequence (Q9UBE0 1-346 partner): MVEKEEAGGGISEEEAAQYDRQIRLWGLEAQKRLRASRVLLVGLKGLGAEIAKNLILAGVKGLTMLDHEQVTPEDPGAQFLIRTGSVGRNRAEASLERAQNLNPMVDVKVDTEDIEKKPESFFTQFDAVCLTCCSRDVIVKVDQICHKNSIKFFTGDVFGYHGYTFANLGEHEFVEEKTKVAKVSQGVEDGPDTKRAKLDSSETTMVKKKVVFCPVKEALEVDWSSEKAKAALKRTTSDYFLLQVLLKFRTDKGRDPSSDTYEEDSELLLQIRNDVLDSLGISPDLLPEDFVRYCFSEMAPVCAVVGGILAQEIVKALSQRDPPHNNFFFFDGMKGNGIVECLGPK
The test can be described thus: SUMO activity (Table I, biological activities). The test is classed as biochemical. Also noted: key: + (less active); ++ (active); +++ (most active).

In the case of `COC(=O)C1=C(C(=O)OC)C2(C(Cc3ccccc3Cl)N[S@+]([O-])C(C)(C)C)CCC1O2` (stereo partly shown) [Compound 694], the SUMO result is “++”.

Take `CCOC(=O)C1=C(C(=O)Nc2cccc(F)c2C)C2C=CC1(C(Nc1ccccc1)c1ccc(CN3CCOCC3)cc1)O2` (stereo not shown) [Compound 603]: the SUMO entry is “++”.

Consider `CCC12C=CC(C(Cc3ccccc3)Nc3ccccc3)(O1)C(C(=O)OC)=C2C(=O)OC` (stereo not shown) [Compound 629], for which the SUMO entry was “++”.

Take `COC(=O)C1=C(C(=O)OC)C2(C(Cc3ccccc3)Nc3ccccc3)CC(O)C1O2` (stereo not shown) [Compound 302]: the SUMO entry is on record as “++”.

Take `COC(=O)C1=C(C(=O)OC)C2(C(Cc3ccc(C#N)cc3)Nc3ccccc3)C=CC1O2` (stereo not shown) [Compound 643]: the SUMO entry was “++”.

For `COC(=O)C1=C(C(=O)OC)C2(C(Cc3cccc4ccccc34)Nc3ccccc3)C=CC1O2` (stereo not shown) [Compound 635], the SUMO result is “++”.

In the case of `COC(=O)C1=C(C(=O)OC)C2(C(Cc3ccccc3)Nc3ccc(F)cc3)C=CC1O2` (stereo not shown) [Compound 273], the SUMO entry is recorded as “++”.

Regarding `COC(=O)C1=C(C(=O)Nc2ccncc2)C2C=CC1(C(Cc1ccccc1)Nc1cc(F)cc(F)c1)O2` (stereo not shown) [Compound 206], the SUMO result is listed as “+”.

In the case of `CCCNC(=O)C1=C(C(=O)NCCC)C2(C(Cc3ccccc3)Nc3ccccc3)C=CC1O2` (stereo not shown) [Compound 157], the SUMO entry is “+”.

For `COC(=O)C1=C(C(=O)OC)C2(C(Cc3cccnc3Cl)Nc3ccccc3)C=CC1O2` (stereo not shown) [Compound 668], the SUMO result is given as “++”.

For `COC(=O)C1=C(C(=O)O)C2C=CC1(C(Cc1ccccc1)Nc1cc(F)cc(F)c1)O2` (stereo not shown) [Compound 203], the SUMO entry is on record as “++”.

Consider `COC(=O)C1=C(C(=O)OC)C2(C(Nc3ccccc3)c3cc4ccccc4nc3Cl)C=CC1O2` (stereo not shown) [Compound 671], for which the SUMO entry is listed as “++”.

For `CCOc1ccc(CC(Nc2ccccc2)C23C=CC(O2)C(C(=O)OC)=C3C(=O)OC)cc1` (stereo not shown) [Compound 644], the SUMO result was “++”.

As to `COC(=O)C1=C(C(=O)Nc2ccc(N3CCN(C)CC3)cc2)C2C=CC1(C(Cc1ccccc1)Nc1ccccc1)O2` (stereo not shown) [Compound 291], the SUMO entry is listed as “++”.

As to `COC(=O)C1=C(C(=O)OC)C2(C(Cc3c(Cl)cccc3Cl)Nc3ccccc3)C=CC1O2` (stereo not shown) [Compound 657], the SUMO entry is listed as “++”.

For the compound `COC(=O)C1=C(C(=O)OC)C2(C(Cc3ccc(F)cc3)Nc3cc(F)cc(Cl)c3)C=CC1O2` (stereo not shown) [Compound 451], the SUMO entry is “+++”.

For `COC(=O)C1=C(C(=O)OC)C2(C(Cc3cccc(Cl)c3)Nc3ccccc3)C=CC1O2` (stereo not shown) [Compound 663], the SUMO entry is recorded as “++”.

Turning to `COC(=O)C1=C(C(=O)OC)C2(C(Cc3cccc(-c4ccccc4)c3)Nc3ccccc3)C=CC1O2` (stereo not shown) [Compound 682], the SUMO result was “+”.

Take `C=CCC(Nc1ccccc1)C12C=CC(O1)C(C(=O)OC)=C2C(=O)OC` (stereo not shown) [Compound 407]: the SUMO entry was “++”.

With `COC(=O)C1=C(C(=O)OC)C2(C(Cc3ccccc3)Nc3ccccc3)C=CC1(C)O2` (stereo not shown) [Compound 259], the SUMO result is “++”.

Take `COC(=O)C1=C(C(=O)OC)C2(C(Cc3ccc(C4CCOCC4)cc3)Nc3ccccc3)C=CC1O2` (stereo not shown) [Compound 681]: the SUMO entry is given as “++”.

In the case of `COC(=O)C1=C(C(=O)OC)C2(C(Cc3ccc(OC(F)(F)F)cc3)Nc3ccccc3)C=CC1O2` (stereo not shown) [Compound 647], the SUMO entry was “++”.

In the case of `COC(=O)C1=C(C(=O)OC)C2(C(Nc3ccccc3)c3cccc4ccccc34)C=CC1O2` (stereo not shown) [Compound 637], the SUMO result is given as “+++”.

As for `CCOc1cccc(NC(Cc2ccccc2)C23C=CC(O2)C(C(=O)NC)=C3C(=O)OC)c1` (stereo not shown) [Compound 250], the SUMO entry was “++”.

`COC(=O)C1=C(C(=O)OC)C2(C(Nc3ccccc3)c3ccc4ccc(OC)cc4c3)C=CC1O2` (stereo not shown) [Compound 654]: the SUMO result was “++”.

In the case of `CCOC(=O)C1=C(C(=O)NC2CCN(C)CC2)C2(CO)C=CC1(C(Cc1ccccc1)Nc1ccccc1)O2` (stereo not shown) [Compound 269], the SUMO entry is given as “++”.

Take `COC(=O)C1=C(C(=O)Nc2ccc(OC)cc2)C2C=CC1(C(Cc1ccccc1)Oc1ccc(F)cc1)O2` (stereo not shown) [Compound 479]: the SUMO entry is “++”.

In the case of `CCOc1cccc(NC(Cc2ccccc2)C23C=CC(O2)C(C(=O)O)=C3C(=O)OC)c1` (stereo not shown) [Compound 246], the SUMO result was “+”.

Regarding `COC(=O)C1=C(C(=O)OC)C2(C(Cc3ccccc3Cl)Nc3ccccc3)CCC1O2` (stereo not shown) [Compound 689], the SUMO entry is recorded as “+”.

Take `CC(C)NC(=O)C1=C(C(=O)NC(C)C)C2(C(Cc3ccccc3)Nc3ccccc3)C=CC1O2` (stereo not shown) [Compound 159]: the SUMO result was “+”.

For `CCOc1cccc(NC(Cc2ccccc2)C23C=CC(O2)C(C(=O)OC)=C3C(=O)OC)c1` (stereo not shown) [Compound 669], the SUMO result is “++”.

As to `COC(=O)C1=C(C(=O)OC)C2(C(Cc3ccccc3)Oc3cccc(CO)c3)C=CC1O2` (stereo not shown) [Compound 520], the SUMO result is given as “++”.

Consider `COC(=O)C1=C(C(=O)OC)C2(C(Cc3ccccc3C)Nc3ccccc3)C=CC1O2` (stereo not shown) [Compound 648], for which the SUMO entry is “++”.

For `COC(=O)C1=C(C(=O)NC2CCOCC2)C2C=CC1(C(Cc1ccccc1)Nc1ccccc1)O2` (stereo not shown) [Compound 275], the SUMO entry is on record as “+++”.

Regarding `CCOC(=O)C1=C(C(=O)OCC)C2(C(Cc3ccccc3)Nc3ccccc3)C=CC1(CO)O2` (stereo not shown) [Compound 265], the SUMO entry is “++”.

For the compound `COC(=O)C1=C(C(=O)OC)C2(C(Cc3ccc(CCO)cc3)Nc3ccccc3)C=CC1O2` (stereo not shown) [Compound 664], the SUMO result was “++”.

As for `COC(=O)C1=C(C(=O)OC)C2(C(Cc3ccccc3Cl)Nc3ccccc3)C=CC1O2` (stereo not shown) [Compound 640], the SUMO entry is recorded as “+++”.

In the case of `COC(=O)C1=C(C(=O)OC)C2(C(Cc3ccc(F)cc3F)Nc3ccccc3)C=CC1O2` (stereo not shown) [Compound 639], the SUMO entry is given as “++”.

In the case of `COC(=O)C1=C(C(=O)OC)C2(C(Cc3ccc(NC(C)C)cc3)Nc3ccccc3)C=CC1O2` (stereo not shown) [Compound 684], the SUMO result is listed as “+”.

On to `COC(=O)C1=C(C(=O)NNc2ccccc2)C2(C)C=CC1(C(Cc1ccccc1)Nc1ccccc1)O2` (stereo not shown) [Compound 295], for which the SUMO result is listed as “++”.

Consider `COC(=O)C1=C(C(=O)OC)C2(C(Cc3ccc(CC(C)C)cc3)Nc3ccccc3)C=CC1O2` (stereo not shown) [Compound 656], for which the SUMO result is listed as “++”.

With `COC(=O)C1=C(C(=O)OC)C2(C(Nc3ccccc3)c3ccc4nc(Cl)ccc4c3)C=CC1O2` (stereo not shown) [Compound 675], the SUMO result is on record as “++”.

Take `COC(=O)C1=C(C(=O)OC)C2(C(Cc3ccc(C)cc3)Nc3ccccc3)C=CC1O2` (stereo not shown) [Compound 627]: the SUMO entry was “+++”.

With `COC(=O)C1=C(C(=O)Nc2ccc(OC)cc2)C2C=CC1(C(Cc1ccccc1)Nc1ccccc1)O2` (stereo not shown) [Compound 194], the SUMO result is “++”.

With `COC(=O)C1=C(C(=O)OC)C2(C(Cc3cccc(OC)c3)Nc3ccccc3)C=CC1O2` (stereo not shown) [Compound 636], the SUMO result was “+++”.

For `COC(=O)C1=C(C(=O)OC)C2(C(Nc3ccccc3)C3CCOCC3)C=CC1O2` (stereo not shown) [Compound 192], the SUMO result is “++”.

In the case of `COC(=O)C1=C(C(=O)OC)C2(C(Cc3ccccc3)N(C)c3c(F)cccc3F)C=CC1O2` (stereo not shown) [Compound 237], the SUMO entry was “+”.

Regarding `CNc1ccc(CC(Nc2ccccc2)C23C=CC(O2)C(C(=O)OC)=C3C(=O)OC)cc1` (stereo not shown) [Compound 685], the SUMO entry is “++”.

Consider `COC(=O)C1=C(C(=O)NC2CCN(C)CC2)C2(C)C=CC1(C(Cc1ccccc1)Nc1ccccc1)O2` (stereo not shown) [Compound 268], for which the SUMO result was “+”.
